Where a SMILES comes first, the peptide text is derived from it.
Molecular target: T1, GST-SHP-1.SH2(C) (Mus musculus, UniProt P29351)
T1 construct: recombinant fusion proteins corresponding to the isolated N- and C-SH2 domains of SHP-1; made in house; host or cells: E. coli DH5α
T1 sequence (P29351 110-213 limits assumed): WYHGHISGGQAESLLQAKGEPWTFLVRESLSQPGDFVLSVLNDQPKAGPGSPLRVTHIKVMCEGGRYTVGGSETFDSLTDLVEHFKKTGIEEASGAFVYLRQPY
Experiment: Surface plasmon resonance, binding of phosphorylated KIR ITIM peptides to SHP-1 C-SH2 domain
Set-up: species or system murine
Settings: calculated from koff/kon
Experimental: Fusion proteins and surface plasmon resonance analysis. Surface plasmon resonance (SPR) measurements were performed on a BIAcore™ (Pharmacia). The GST-SHP-1.SH2(NC), GST-SHP-1.SH2(N), GST-SHP-1.SH2(C), GST-SHIP.SH2 fusion proteins generated from the murine phosphatase cDNA, were purified from DH5α lysates. Briefly, overnight culture at 37°C in LB medium containing 50 µg/ml ampicillin was diluted 1/10 in fresh medium, and incubated until the absorbance at 600 nm reaches 1-2. At that point, IPTG was added (1mM), and incubation continued for an additional 4 hours at 37°C. […] Protein purity was assessed by 12.5 % SDS-PAGE, and Coomassie blue staining. […] Then, biotinylated peptides were injected, and their binding to streptavidine-coated microchips was assessed using anti-phosphotyrosine 4G10 mAb (UBI).
The measurement of phosphorylated p58.2 peptide binding to GST-SHP-1.SH2(N) and GST-SHP-1.SH2(C) fusion proteins was at a constant 5 µl/min flow rate. […] Results are expressed as corrected resonance units (CRU) corresponding to the raw RU values subtracted from background RU value due to the injection medium. In this representative experiment, 130 RU of p58.2.1 peptide and 160 RU of p58.2.2 peptide were immobilized on microchips. koff and kon were calculated from three independent measurements using the BIAevaluation 2.0 software. Kd was calculated from koff/kon.

## CC[C@H](C)[C@H](NC(=O)[C@H](CC(=O)O)NC(=O)[C@@H](NC(=O)[C@@H]1CCCN1C(=O)[C@@H]1CCCN1C(=O)[C@@H](NC(=O)[C@H](CCCCN)NC(=O)[C@@H]1CCCN1C(=O)[C@H](CCCNC(=N)N)NC(=O)[C@H](CCC(N)=O)NC(=O)[C@H](CO)NC(=O)[C@@H]1CCCN1C(=O)[C@H](CCCNC(=N)N)NC(=O)CCCC[C@@H]1SC[C@@H]2NC(=O)N[C@@H]21)[C@@H](C)O)[C@@H](C)O)C(=O)N[C@H](C(=O)N[C@H](C(=O)N[C@@H](Cc1ccc(OP(=O)(O)O)cc1)C(=O)N[C@H](C(=O)N[C@@H](CCC(=O)O)C(=O)N[C@@H](CC(C)C)C(=O)N1CCC[C@H]1C(=O)N[C@@H](CC(N)=O)C(=O)N[C@@H](C)C(=O)N[C@@H](CCC(=O)O)C(=O)N1CCC[C@H]1C(=O)O)[C@@H](C)O)C(C)C)[C@@H](C)CC [p58.2.2, RPSQRPKTPPTDIIVY333TELPNAEP] (HELM PEPTIDE1{[O=C1N[C@H]2[C@H](CS[C@H]2CCCCC(=O)[*:2])N1].R.P.S.Q.R.P.K.T.P.P.T.D.I.I.V.[O=C([C@H](Cc1ccc(OP(=O)(O)O)cc1)N[*:1])[*:2]].T.E.L.P.N.A.E.P}$$$$V2.0)
  Kd: 545 nM
